The values that follow come from patent publication US11952392B2, “Arginase inhibitors and methods of use thereof” (AstraZeneca AB, priority 2018, dated 2024).

A short description of this data set: Gravity vapor sorption (GVS) analysis. The format is physicochemical.
[1] abbreviates: at relative humidity (RH) of 80%.

As to `CC(C)[C@H](N)C(=O)N[C@H]1CN[C@]2(CCCCB(O)OC2=O)C1` [Example 1, (S)-2-amino-N-((3R,5R)-8-hydroxy-6-oxo-7-oxa-1-aza-8-boraspiro[4.7]dodecan-3-yl)-3-methylbutanamide], the “RH after which the solid starts to deliquesce (GVS)” value is given as over 80 % RH. Further, the “water absorbed (GVS)” value (at relative humidity (RH) of 70%) is given as “less than 2%”.

Consider `CC(C)[C@@H]1NC(C)(C)N([C@H]2CN[C@]3(CCCCB(O)OC3=O)C2)C1=O` [Example 2, (3R,5R)-8-hydroxy-3-((S)-4-isopropyl-2,2-dimethyl-5-oxoimidazolidin-1-yl)-7-oxa-1-aza-8-boraspiro[4.7]dodecan-6-one], for which the “water absorbed (GVS)” value under setting [1] was “less than 2%”.

`CC(C)[C@H](N)C(=O)N[C@H]1CN[C@]2(CCCCB(O)OC2=O)C1` [Example 3, (S)-2-amino-N-((3R,5R)-8-hydroxy-6-oxo-7-oxa-1-aza-8-boraspiro[4.7]dodecan-3-yl)-3-methylbutanamide]: under setting [1], the “water absorbed (GVS)” value was “less than 2%”.
